Experimental data published in ChEMBL document CHEMBL1201862, “PubChem BioAssay data set” (2004).
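Compound exposure: 48 hours, 5 concentrations, 96-well plates. The concentration for 50% growth inhibition is given as GI50.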 Active and inactive are the calls of the source. Rule as the data show it: active = GI50 up to about 1.1 µM and inactive = higher.

What was measured:
Assay in all cases: NCI anticancer screen, dose series, 48 h
786-0 = tested on: 786-0
A549 = tested on: A549
ACHN = tested on: ACHN
BT-549 = tested on: BT-549
CAKI-1 = tested on: CAKI-1
CCRF-CEM = tested on: CCRF-CEM
COLO 205 = tested on: COLO 205
DU-145 = tested on: DU-145
EKVX = tested on: EKVX
HCC 2998 = tested on: HCC 2998
HCT-116 = tested on: HCT-116
HCT-15 = tested on: HCT-15
HL-60 = tested on: HL-60
HOP-62 = tested on: HOP-62
HT-29 = tested on: HT-29
Hs-578T = tested on: Hs-578T
IGROV-1 = tested on: IGROV-1
K562 = tested on: K562
KM12 = tested on: KM12
LOX IMVI = tested on: LOX IMVI
M14 = tested on: M14
MCF7 = tested on: MCF7
MDA-MB-231 = tested on: MDA-MB-231
MDA-N = tested on: MDA-N
MOLT-4 = tested on: MOLT-4
Malme-3M = tested on: Malme-3M
NCI-H226 = tested on: NCI-H226
NCI-H23 = tested on: NCI-H23
NCI-H460 = tested on: NCI-H460
NCI-H522 = tested on: NCI-H522
NCI/ADR-RES = tested on: NCI/ADR-RES
OVCAR-4 = tested on: OVCAR-4
OVCAR-5 = tested on: OVCAR-5
OVCAR-8 = tested on: OVCAR-8
PC-3 = tested on: PC-3
RPMI-8226 = tested on: RPMI-8226
RXF 393 = tested on: RXF 393
SF-268 = tested on: SF-268
SF-295 = tested on: SF-295
SF-539 = tested on: SF-539
SK-MEL-28 = tested on: SK-MEL-28
SK-MEL-2 = tested on: SK-MEL-2
SK-MEL-5 = tested on: SK-MEL-5
SK-OV-3 = tested on: SK-OV-3
SN12C = tested on: SN12C
SNB-19 = tested on: SNB-19
SNB-75 = tested on: SNB-75
SR = tested on: SR
SW-620 = tested on: SW-620
T47D = tested on: T47D
TK-10 = tested on: TK-10
U-251 = tested on: U-251
UACC-257 = tested on: UACC-257
UACC-62 = tested on: UACC-62
UO-31 = tested on: UO-31

How did the GI50 (786-0) turn out when `O=C1CC[C@@]23CC(=O)O[C@@H]2CCCC3C1` (stereo not given in full) was run?
The GI50 was > 100 µM (inactive).

What about the GI50 (A549) of the same compound?
The GI50 was > 100 µM (inactive).

What about the GI50 (ACHN) of the same compound?
The GI50 was > 100 µM (inactive).

What about the GI50 (BT-549) of the same compound?
The GI50 was > 100 µM (inactive).

And the GI50 (CAKI-1)?
The GI50 was > 100 µM (inactive).

What about the GI50 (CCRF-CEM) of the same compound?
Its GI50 is > 100 µM (inactive).

What about the GI50 (COLO 205) of the same compound?
The GI50 was > 100 µM (inactive).

And the GI50 (DU-145)?
The GI50 was > 100 µM (inactive).

And the GI50 (EKVX)?
The GI50 was > 100 µM (inactive).

And the GI50 (HCC 2998)?
The GI50 was > 100 µM (inactive).

What about the GI50 (HCT-116) of the same compound?
Its GI50 is > 100 µM (inactive).

And the GI50 (HCT-15)?
The GI50 was greater than 100 µM.

What about the GI50 (HL-60) of the same compound?
Its GI50 is > 100 µM (inactive).

And the GI50 (HOP-62)?
The GI50 was > 100 µM (inactive).

And the GI50 (HT-29)?
The GI50 was > 100 µM (inactive).

And the GI50 (Hs-578T)?
The GI50 was > 100 µM (inactive).

And the GI50 (IGROV-1)?
Its GI50 is > 100 µM (inactive).

And the GI50 (K562)?
The GI50 was > 100 µM (inactive).

And the GI50 (KM12)?
The GI50 was > 100 µM (inactive).

What about the GI50 (LOX IMVI) of the same compound?
Its GI50 is > 100 µM (inactive).

What about the GI50 (M14) of the same compound?
The GI50 was > 100 µM (inactive).

And the GI50 (MCF7)?
The GI50 was > 100 µM (inactive).

What about the GI50 (MDA-MB-231) of the same compound?
Its GI50 is > 100 µM (inactive).

What about the GI50 (MDA-N) of the same compound?
Its GI50 is > 100 µM (inactive).

What about the GI50 (MOLT-4) of the same compound?
Its GI50 is > 100 µM (inactive).

And the GI50 (Malme-3M)?
Its GI50 is > 100 µM (inactive).

What about the GI50 (NCI-H226) of the same compound?
The GI50 was > 100 µM (inactive).

What about the GI50 (NCI-H23) of the same compound?
Its GI50 is > 100 µM (inactive).

And the GI50 (NCI-H460)?
The GI50 was > 100 µM (inactive).

And the GI50 (NCI-H522)?
Its GI50 is > 100 µM (inactive).

What about the GI50 (NCI/ADR-RES) of the same compound?
The GI50 was > 100 µM (inactive).

What about the GI50 (OVCAR-4) of the same compound?
The GI50 was > 100 µM (inactive).

What about the GI50 (OVCAR-5) of the same compound?
Its GI50 is > 100 µM (inactive).

And the GI50 (OVCAR-8)?
Its GI50 is > 100 µM (inactive).

What about the GI50 (PC-3) of the same compound?
Its GI50 is > 100 µM (inactive).

What about the GI50 (RPMI-8226) of the same compound?
Its GI50 is > 100 µM (inactive).

What about the GI50 (RXF 393) of the same compound?
The GI50 was 18.5 µM (inactive).

And the GI50 (SF-268)?
Its GI50 is > 100 µM (inactive).

And the GI50 (SF-295)?
Its GI50 is > 100 µM (inactive).

What about the GI50 (SF-539) of the same compound?
Its GI50 is > 100 µM (inactive).

What about the GI50 (SK-MEL-28) of the same compound?
The GI50 was > 100 µM (inactive).

And the GI50 (SK-MEL-2)?
Its GI50 is > 100 µM (inactive).

And the GI50 (SK-MEL-5)?
The GI50 was > 100 µM (inactive).

What about the GI50 (SK-OV-3) of the same compound?
The GI50 was > 100 µM (inactive).

And the GI50 (SN12C)?
Its GI50 is > 100 µM (inactive).

And the GI50 (SNB-19)?
The GI50 was > 100 µM (inactive).

And the GI50 (SNB-75)?
Its GI50 is > 100 µM (inactive).

And the GI50 (SR)?
Its GI50 is > 100 µM (inactive).

And the GI50 (SW-620)?
Its GI50 is > 100 µM (inactive).

And the GI50 (T47D)?
Its GI50 is > 100 µM (inactive).

And the GI50 (TK-10)?
Its GI50 is > 100 µM (inactive).

What about the GI50 (U-251) of the same compound?
The GI50 was > 100 µM (inactive).

What about the GI50 (UACC-257) of the same compound?
Its GI50 is > 100 µM (inactive).

What about the GI50 (UACC-62) of the same compound?
The GI50 was > 100 µM (inactive).

What about the GI50 (UO-31) of the same compound?
Its GI50 is > 100 µM (inactive).
